Assay results taken from PubChem BioAssay AID1259407 (Chemical Carcinogenesis Research Information System (CCRIS), 2018).
The source made the active and inactive calls. The rule behind the calls is not given here.

Tested on: CCRIS mutagenicity, Ames/micronucleus/aberration tests
Assay: CCRIS mutagenicity studies
[1] = Test System: AMES SALMONELLA TYPHIMURIUM, Strain/Indicator: TA100, Metabolic Activation: NONE, Method: PREINCUBATION
[2] = Test System: AMES SALMONELLA TYPHIMURIUM, Strain/Indicator: TA100, Metabolic Activation: RAT, INTACT HEPATOCYTES, AROCLOR 1254, Method: PREINCUBATION
[3] = Test System: AMES SALMONELLA TYPHIMURIUM, Strain/Indicator: TA100, Metabolic Activation: RAT, NADPH-FORTIFIED HOMOGENIZED HEPATOCYTES, AROCLOR 1254, Method: PREINCUBATION
[4] = Test System: AMES SALMONELLA TYPHIMURIUM, Strain/Indicator: TA98, Metabolic Activation: NONE, Method: STANDARD PLATE
[5] = Test System: AMES SALMONELLA TYPHIMURIUM, Strain/Indicator: TA98, Metabolic Activation: RAT, LIVER, S-9, AROCLOR 1254, Method: STANDARD PLATE
[6] = Test System: AMES SALMONELLA TYPHIMURIUM, Strain/Indicator: TA100, Metabolic Activation: NONE, Method: STANDARD PLATE
[7] = Test System: AMES SALMONELLA TYPHIMURIUM, Strain/Indicator: TA100, Metabolic Activation: RAT, LIVER, S-9, AROCLOR 1254, Method: STANDARD PLATE
[8] = Test System: AMES SALMONELLA TYPHIMURIUM, Strain/Indicator: TA98, Metabolic Activation: NONE, Method: PREINCUBATION
[9] = Test System: AMES SALMONELLA TYPHIMURIUM, Strain/Indicator: TA102, Metabolic Activation: NONE, Method: PREINCUBATION

Measured: mutagenic call

O=C(CCl)C(Cl)Cl
inactive: Test System: AMES SALMONELLA TYPHIMURIUM, Strain/Indicator: TA100, Metabolic Activation: RAT, LIVER, S-9, AROCLOR 1254, Method: FLUCTUATION TEST inactive; negative
active: Test System: AMES SALMONELLA TYPHIMURIUM, Strain/Indicator: TA100, Metabolic Activation: NONE, Method: FLUCTUATION TEST active; positive

CC12OOC1(CO)Oc1ccccc12 (stereo unspecified)
inactive: [1] inactive; negative

Cc1cc2cc3ccccc3c3ccc4cccc1c4c23
active: [2] active; positive | [3] active; positive

CN=C1C=CC(=C(c2ccc(N(C)C)cc2)c2ccc(N(C)C)cc2)C=C1
inactive: Test System: AMES SALMONELLA TYPHIMURIUM, Strain/Indicator: TA97, Metabolic Activation: NONE, Method: STANDARD PLATE inactive; negative | Test System: AMES SALMONELLA TYPHIMURIUM, Strain/Indicator: TA97, Metabolic Activation: RAT, LIVER, S-9, AROCLOR 1254, Method: STANDARD PLATE inactive; negative | [4] inactive; negative | [5] inactive; negative | [6] inactive; negative | [7] inactive; negative | Test System: AMES SALMONELLA TYPHIMURIUM, Strain/Indicator: TA104, Metabolic Activation: NONE, Method: STANDARD PLATE inactive; negative | Test System: AMES SALMONELLA TYPHIMURIUM, Strain/Indicator: TA104, Metabolic Activation: RAT, LIVER, S-9, AROCLOR 1254, Method: STANDARD PLATE inactive; negative

CCC(=O)N(c1ccc(Cl)c(Cl)c1)[C@@H]1CCC[C@H]1N(C)C
inactive: [4] inactive; negative | [5] inactive; negative | [6] inactive; negative | [7] inactive; negative | Test System: AMES SALMONELLA TYPHIMURIUM, Strain/Indicator: TA1535, Metabolic Activation: NONE, Method: STANDARD PLATE inactive; negative | Test System: AMES SALMONELLA TYPHIMURIUM, Strain/Indicator: TA1535, Metabolic Activation: RAT, LIVER, S-9, AROCLOR 1254, Method: STANDARD PLATE inactive; negative | Test System: AMES SALMONELLA TYPHIMURIUM, Strain/Indicator: TA1537, Metabolic Activation: NONE, Method: STANDARD PLATE inactive; negative | Test System: AMES SALMONELLA TYPHIMURIUM, Strain/Indicator: TA1537, Metabolic Activation: RAT, LIVER, S-9, AROCLOR 1254, Method: STANDARD PLATE inactive; negative | Test System: AMES SALMONELLA TYPHIMURIUM, Strain/Indicator: TA1538, Metabolic Activation: NONE, Method: STANDARD PLATE inactive; negative | Test System: AMES SALMONELLA TYPHIMURIUM, Strain/Indicator: TA1538, Metabolic Activation: RAT, LIVER, S-9, AROCLOR 1254, Method: STANDARD PLATE inactive; negative | Test System: CHINESE HAMSTER OVARY, Strain/Indicator: CHO-K1-BH4 (HGPRT), Metabolic Activation: NONE inactive; negative | Test System: CHINESE HAMSTER V-79, Strain/Indicator: V-79/6-THIOGUANINE, Metabolic Activation: NONE inactive; negative | Test System: CHINESE HAMSTER V-79, Strain/Indicator: V-79/6-THIOGUANINE, Metabolic Activation: RAT, LIVER, S-9, AROCLOR 1254 inactive; negative | Test System: UDS RODENT HEPATOCYTES, Strain/Indicator: THY INCORP, Metabolic Activation: NONE inactive; negative

Cc1cccc2ccc3cc4ccccc4cc3c12
active: [2] active; positive | [3] active; positive | Test System: AMES SALMONELLA TYPHIMURIUM, Strain/Indicator: TA100, Metabolic Activation: RAT, SONICATED HEPATOCYTES, AROCLOR 1254, Method: PREINCUBATION active; positive

O=S(=O)(O)Oc1ccc2cc3ccc4cccc5ccc(c2c1)c3c45
inactive: [8] inactive; negative | Test System: AMES SALMONELLA TYPHIMURIUM, Strain/Indicator: TA98, Metabolic Activation: RAT, LUNG, S-9, Method: PREINCUBATION inactive; negative

O=C(O)/C=C/C(=O)CC(=O)CC(=O)O
active: Test System: CHINESE HAMSTER V-79, Strain/Indicator: V-79 (HGPRT)/6-THIOGUANINE, Metabolic Activation: NONE active; positive

CCCCNCCCNCCCNC(=O)c1csc(-c2csc(CCNC(=O)C(NC(=O)C(C)C(O)C(C)NC(=O)C(NC(=O)c3nc(C(CC(N)=O)NCC(N)C(N)=O)nc(N)c3C)C(OC3OC(CO)C(O)C(O)C3OC3OC(CO)C(O)C(OC(N)=O)C3O)c3cnc[nH]3)C(C)O)n2)n1 (stereo unspecified)
active: [9] active; positive

COc1ccc([Se]c2ccc(OC)cc2)cc1
active: [6] active; positive
inactive: Test System: AMES SALMONELLA TYPHIMURIUM, Strain/Indicator: TA97A, Metabolic Activation: NONE, Method: STANDARD PLATE inactive; negative

Cc1ccc(NN=NCc2ccc([N+](=O)[O-])cc2)cc1
active: [8] active; positive | Test System: AMES SALMONELLA TYPHIMURIUM, Strain/Indicator: TA98, Metabolic Activation: RAT, LIVER, S-9, PCB, Method: PREINCUBATION active; positive | [1] active; positive | Test System: AMES SALMONELLA TYPHIMURIUM, Strain/Indicator: TA100, Metabolic Activation: RAT, LIVER, S-9, PCB, Method: PREINCUBATION active; positive

c1ccc2[nH]ccc2c1
inactive: Test System: AMES SALMONELLA TYPHIMURIUM, Strain/Indicator: TA97, Metabolic Activation: NONE, Method: PREINCUBATION inactive; negative | Test System: AMES SALMONELLA TYPHIMURIUM, Strain/Indicator: TA97, Metabolic Activation: RAT, LIVER, S-9, AROCLOR 1254, Method: PREINCUBATION inactive; negative | [1] inactive; negative | [9] inactive; negative | Test System: AMES SALMONELLA TYPHIMURIUM, Strain/Indicator: TA102, Metabolic Activation: RAT, LIVER, S-9, AROCLOR 1254, Method: PREINCUBATION inactive; negative

Nc1c2cc([N+](=O)[O-])ccc2nc2ccc([N+](=O)[O-])cc12
active: Test System: AMES SALMONELLA TYPHIMURIUM, Strain/Indicator: TA1537, Metabolic Activation: NONE active; positive
